Earlier results in patent publication US7125702B2, “Process for the preparation of angiotensis converting enzyme (ACE) inhibitors and its use” (Council of Scientific and Industrial Research, priority 2003, dated 2006).

Assays:
[1] = target: angiotensin-converting enzyme (Homo sapiens, UniProt P12821); conditions: read-out: IC50 (ACE inhibition)
[2] = target: angiotensin I-converting enzyme (Homo sapiens, UniProt P12821); conditions: read-out: IC50 (ACE inhibition)
[3] = tested on: blood pressure
[4] = tested on: spontaneously hypertensive rats; conditions: 30 mg/kg intravenous injection

Chain of angiotensin-converting enzyme (P12821 30-1306): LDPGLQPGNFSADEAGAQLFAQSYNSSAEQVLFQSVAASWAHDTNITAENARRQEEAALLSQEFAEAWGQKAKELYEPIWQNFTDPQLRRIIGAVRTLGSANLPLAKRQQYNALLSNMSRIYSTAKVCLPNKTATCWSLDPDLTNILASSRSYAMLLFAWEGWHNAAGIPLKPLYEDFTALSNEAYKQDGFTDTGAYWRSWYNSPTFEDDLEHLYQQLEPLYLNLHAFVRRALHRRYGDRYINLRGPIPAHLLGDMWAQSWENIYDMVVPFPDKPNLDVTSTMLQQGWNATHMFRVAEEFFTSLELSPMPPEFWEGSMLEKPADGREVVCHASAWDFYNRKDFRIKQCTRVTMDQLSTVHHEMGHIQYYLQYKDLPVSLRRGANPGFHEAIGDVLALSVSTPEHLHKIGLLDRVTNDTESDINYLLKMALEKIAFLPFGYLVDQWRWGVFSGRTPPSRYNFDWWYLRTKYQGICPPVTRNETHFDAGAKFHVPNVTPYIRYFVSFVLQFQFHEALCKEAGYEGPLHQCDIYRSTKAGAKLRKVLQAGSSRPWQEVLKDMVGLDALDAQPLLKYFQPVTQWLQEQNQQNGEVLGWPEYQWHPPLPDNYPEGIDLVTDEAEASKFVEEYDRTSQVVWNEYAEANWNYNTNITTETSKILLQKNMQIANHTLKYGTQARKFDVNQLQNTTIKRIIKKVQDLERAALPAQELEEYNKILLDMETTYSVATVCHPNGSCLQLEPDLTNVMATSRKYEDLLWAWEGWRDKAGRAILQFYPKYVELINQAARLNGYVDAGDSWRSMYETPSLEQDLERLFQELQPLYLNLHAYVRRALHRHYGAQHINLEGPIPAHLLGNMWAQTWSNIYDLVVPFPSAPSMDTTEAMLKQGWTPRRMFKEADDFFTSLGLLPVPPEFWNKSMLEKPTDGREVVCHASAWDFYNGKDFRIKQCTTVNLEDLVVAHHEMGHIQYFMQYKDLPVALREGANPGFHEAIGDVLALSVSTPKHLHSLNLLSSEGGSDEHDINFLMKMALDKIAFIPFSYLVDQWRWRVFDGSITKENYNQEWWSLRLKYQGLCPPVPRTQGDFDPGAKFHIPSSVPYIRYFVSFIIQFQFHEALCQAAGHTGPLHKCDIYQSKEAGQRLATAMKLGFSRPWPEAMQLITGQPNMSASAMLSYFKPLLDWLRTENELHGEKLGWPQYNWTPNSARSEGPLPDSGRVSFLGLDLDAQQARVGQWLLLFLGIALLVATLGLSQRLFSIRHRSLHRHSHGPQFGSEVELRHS
Chain of angiotensin I-converting enzyme (P12821 30-1306): as above

Substance | IC50 [1] [nM] | IC50 [2] [nM] | also measured
Leu-Asn-Pro [tripeptide from thermolysin hydrolysate of α-zein] | 1900 | – | –
Asp-Gly | – | 12300 | –
His-His-Leu | – | – | pressure in the aorta ([3]; synthetic peptide): significant pressure decrease; systolic blood pressure decrease ([3]; triple injections of the peptide): 61 mm Hg
Leu-Arg-Pro [tripeptide from thermolysin hydrolysate of α-zein] | 270 | – | blood pressure decrease [4]: 15 mm Hg

Further lines, with some results ahead:

IC50 [1] [nM] | IC50 [2] [nM] | Substance | also measured
– | 4800 | Ap-Leu-Pro | –
1700 | – | Leu-Ser-Pro [tripeptide from thermolysin hydrolysate of α-zein] | –
